Data reported in patent US20130005699A1, “METHODS AND PRODUCTS FOR TREATMENT OF DISEASES” (DMI ACQUISITION CORP., priority 2009, published 2013).

How the values were obtained:
RhoA = test: Rho activation assay (GLISA) in retinal endothelial cells; assay type: cell-based, human
Method: This experiment was performed using a commercially-available Rho activation assay (GLISA) purchased from Cytoskeleton, Denver, Colo., following the manufacturer's protocol. […] Test compounds diluted in HBSS were placed in the incubator to equilibrate before addition to the cells. Then, 150 μl of each test compound was added to the appropriate culture wells, and the plates were incubated in the incubator for an additional 15 minutes. Then, thrombin was added to appropriate wells. After 1 minute, the cells were washed one time with 1.5 ml phosphate buffered saline and were then lysed with 100 μl GLISA lysis buffer supplemented with protease inhibitors. The extracts were scraped, transferred to microcentrifuge tubes and transferred to ice to preserve the active form of RhoA. All extracts were then cleared of debris by spinning at 10,000 rpms for 2 minutes at 4° C. The supernatants were transferred to new tubes and placed back on ice. Aliquots of each extract were removed for the GLISA assay and for protein determinations. All protein concentrations were within 10%, and the extracts were used at the achieved concentrations (equates to 15 μg total protein per well). The GLISA assay was performed using the reagents supplied in the kit.

[1] = tested on: human retinal endothelial cells; test: TER of retinal endothelial cell monolayers with danazol, steroid receptor antagonists and hormones (Example 10); conditions: 0.1 μM of each additive, background subtracted, divided by 0.33 cm^2
[2] = tested on: human retinal endothelial cells; test: Actin stress fiber formation, rhodamine-phalloidin staining, TNFα (Example 7); conditions: 30 minutes
[3] = tested on: Human Brain Endothelial Cells; test: TER of endothelial cell monolayers (Example 4), brain; assay type: cell-based; conditions: Danazol 1.0 μM, TER measurements/cm^2 of insert, blank subtracted
Method: (§1) […]. Assays were also performed in the same manner using passage 8 human brain endothelial cells and passage 8 human umbilical vein endothelial cells.
(§2) An initial TER measurement was taken for each insert using EVOM^2 voltohmmeter connected to an STX100 electrode (both from World Precision Instruments). Measurements were also taken at 24, 48, 72 and 144 hours. All data are presented as TER measurements/cm^2 of insert with TER of blank inserts subtracted.

[4] = tested on: human retinal endothelial cells; test: TER of retinal endothelial cell monolayers with danazol and steroid receptor antagonists (Example 6); conditions: 0.1 μM of each additive, background subtracted, divided by 0.33 cm^2
[5] = tested on: human renal glomerular microvascular endothelial cells; test: ECIS resistance (Example 12), glomerular cells; conditions: danazol 1 μM alone
[6] = tested on: human renal glomerular microvascular endothelial cells; test: ECIS resistance (Example 13), glomerular cells, medium without dexamethasone
[7] = tested on: human retinal endothelial cells; test: TER of endothelial cell monolayers (Example 4), retinal; assay type: cell-based; conditions: Danazol 1.0 μM, TER measurements/cm^2 of insert, blank subtracted
Method: as §1, §2

HUVECs [8] = test: HUVEC invasion (BioCoat Matrigel Invasion Chambers); assay type: cell-based, human; conditions: 24 hours
Method: BioCoat Matrigel Invasion Chambers were purchased from BD Biosciences (San Jose, Calif.). Inserts were rehydrated at 37° C. with 500 μl HBSS for 2 hours prior to use in humidified incubator. Trypsinized HUVECs were washed twice with warm EGM-2 containing 0.1% FCS and added to the upper chamber of the invasion insert at 100,000 cells in a total volume of 250 μl. […]. Non-invasive cells were removed from the upper chamber with moistened cotton swabs and then the inserts were washed twice with HBSS. The inserts were then submerged in 10 μM calcein AM prepared in HBSS and incubated for 4 hours. Fluorescence was determined in a microplate reader at 485 nm excitation and 595 nm emission.
All data is presented as representative experiment done in triplicate. Differences between subsets were analyzed using student t-test in Microsoft Excel. P<0.05 was considered statistically significant.

HUVECs [9] = test: HUVEC scratch migration assay; assay type: cell-based, human; conditions: for Mean pixels (gap): 24 hours, diluent control 1264.00
Method: Passage 8 HUVECs, lot number 8750 (obtained from Lonza), were plated in 6-well plates (ICS BioExpress) in endothelial growth medium-2 (EGM-2) complete medium (obtained from Lonza). […] The monolayers were then “scratched” with a 1000 μl pipet tip and washed two times with warm EGM-2 medium. […] The wells were photographed again. The gaps were measured in each photograph using Adobe Photoshop software, and gap measurements are presented as the number of pixels in the gap.

[10] = tested on: Human Umbilical Vein Endothelial Cells; test: TER of endothelial cell monolayers (Example 4), umbilical vein; assay type: cell-based; conditions: Danazol 1.0 μM, TER measurements/cm^2 of insert, blank subtracted
Method: as §1, §2

[11] = tested on: human retinal endothelial cells; test: Actin stress fiber formation, rhodamine-phalloidin staining, VEGF (Example 8); assay type: cell-based; conditions: for change of the VEGF stress fiber pattern: then VEGF 25 ng/ml 30 minutes; for F-actin staining pattern: no VEGF
Method: . […] To counter-stain for nuclei, 100 μl of a 3 μM DAPI (4,6-diamidino-2-phenylindole, dilactate (Invitrogen)) solution was added to each well. After 5 minutes, the cells were washed two times with 100 μl PBS.

[12] = passage 8 cells, 0.1 U/ml Thrombin + 1.0 μM compound
[13] = passage 12 cells, 0.1 U/ml Thrombin + 1.0 μM compound

## C#C[C@]1(O)CC[C@H]2[C@@H]3CCC4=Cc5oncc5C[C@]4(C)[C@H]3CC[C@@]21C [Danazol, 17α-pregna-2,4-dien-20-yno[2,3-d]-isoxazol-17β-ol]
RhoA; passage 8 cells, 1.0 μM
  Percent Inhibition vs. Untreated Control: 73.89%
RhoA; passage 8 cells, 1.0 μM, no thrombin, Untreated 0.102
  Mean OD (active RhoA): 0.027
RhoA; [12]
  Mean OD (active RhoA): 0.373
  Percent Inhibition vs. Thrombin: 41.02%
RhoA; passage 12 cells, 1.0 μM
  Percent Inhibition vs. Untreated Control: 6.82%
RhoA; passage 12 cells, 1.0 μM, no thrombin, Untreated 0.455
  Mean OD (active RhoA): 0.424
RhoA; [13]
  Mean OD (active RhoA): 0.859
  Percent Inhibition vs. Thrombin: 27.57%
[1]; None 250.30
  TER at 5 minutes: 280.03
[1]; None 251.00
  TER at 60 minutes: 313.06
[1]; None 262.31
  TER at 30 minutes: 311.56
[1]; None 287.09
  TER at 24 Hours: 348.35
[2]; danazol 0.1 μM or 10 μM, TNFα 50 ng/ml
  effect on stress fiber development with TNFα: decreased the number of cells exhibiting stress fiber development
[2]; danazol 0.1 μM
  F-actin staining pattern: diffuse staining throughout the cytoplasm
[2]; danazol 10.0 μM
  F-actin staining pattern: stress fibers with multiple focal points
[3]; None 41.4
  TER at 0 Hours: 32.3
[3]; None 115.7
  TER at 24 Hours: 139.9
[3]; None 151.5
  TER at 144 Hours: 125.8
[3]; None 154.0
  TER at 72 Hours: 149.5
[3]; None 176.3
  TER at 48 Hours: 188.4
[4]; None 216.22
  TER at 30 minutes: 255.26
[4]; None 234.23
  TER at 120 minutes: 249.35
[4]; None 249.25
  TER at 60 minutes: 267.27
[4]; None 312.31
  TER at 24 Hours: 366.37
[5]
  period of greatest increase of ECIS: 60 to 90 h
[6]; danazol 1 μM alone
  persistence of increased ECIS: about 90 hours
  start of increase of ECIS compared to untreated cells: about 3 hours
[6]; danazol 1 μM versus dexamethasone 1 μM
  enhancement of ECIS (TER) compared to dexamethasone: not as great
[7]; None 32.3
  TER at 0 Hours: 21.7
[7]; None 96.0
  TER at 24 Hours: 132.3
[7]; None 144.4
  TER at 48 Hours: 182.3
[7]; None 148.0
  TER at 72 Hours: 217.7
[7]; None 219.7
  TER at 144 Hours: 234.8
HUVECs [8]; 10 μM
  effect on FCS-induced cell invasion: no effect
HUVECs [8]; 100 μM
  effect on FCS-induced cell invasion: no effect
HUVECs [9]; Danazol 10 μM
  Mean pixels (gap): 1004.00 pixels
HUVECs [9]; Danazol 25 μM
  Mean pixels (gap): 1184.00 pixels
HUVECs [9]; Danazol 50 μM
  Mean pixels (gap): 895.33 pixels
HUVECs [9]; Danazol 75 μM
  Mean pixels (gap): 317.33 pixels
HUVECs [9]; Danazol 100 μM
  Mean pixels (gap): 178.67 pixels
HUVECs [9]; Homo sapiens, HUVEC, 24 h
  inhibition at 10 µM: 21.1%
  inhibition at 25 µM: 5.5%
  inhibition at 50 µM: 27.6%
  inhibition at 75 µM: 74.6%
  inhibition at 100 µM: 85.9%
[10]; None 82.3
  TER at 0 Hours: 70.2
[10]; None 217.2
  TER at 24 Hours: 246.0
[10]; None 226.8
  TER at 72 Hours: 270.7
[10]; None 227.3
  TER at 144 Hours: 286.4
[10]; None 276.3
  TER at 48 Hours: 364.1
[11]; danazol 0.1 μM 30 minutes
  change of the VEGF stress fiber pattern: made the stress fibers less pronounced and some diffuse staining appeared
[11]; danazol 0.1 μM
  F-actin staining pattern: diffuse F-actin staining throughout the cytoplasm
[11]; danazol 1.0 μM 30 minutes
  change of the VEGF stress fiber pattern: showed fewer thick stress fibers, but focal points were seen on contact surfaces
[11]; danazol 1.0 μM
  F-actin staining pattern: the diffuse staining persisted, but stress fibers and focal points around the perimeter of most cells were visible
[11]; danazol 10.0 μM 30 minutes
  change of the VEGF stress fiber pattern: showed strong stress fiber development with focal points
[11]; danazol 10.0 μM
  F-actin staining pattern: stress fiber development and focal points were seen
